This note sets out measurements from ChEMBL document CHEMBL1157334, “Neuroprotective diterpenes from the fruiting body of Antrodia camphorata” (2006).

The nature of assay [1]: Neuroprotective effect against amyloid beta(25 to 35)-induced cell death in Harlan Sprague-Dawley rat pups cortical neurons assessed as cell death at 20 uM treated 2 hrs before amyloid beta(25 to 35) treatment after 40 hrs by MTT assay. As to conditions: for cell death at 20 µM: Rattus norvegicus, Harlan Sprague-Dawley, Cortical neurone.
Assay [2] in a line: Neuroprotective effect against amyloid beta(25 to 35)-induced cell death in Harlan Sprague-Dawley rat pups cortical neurons assessed as cell death at 10 uM treated 2 hrs before amyloid beta(25 to 35) treatment after 40 hrs by MTT assay.

As to `C=C1CC[C@@H]2[C@](C)(CO)[C@H](O)CC[C@@]2(C)[C@@H]1/C=C/C1=CCOC1=O`, the cell death at 20 µM in assay [1] stood at 29.5%.
In the case of `CC(=O)N[C@@H](CC(=O)O)C(=O)N[C@@H](CCC(=O)O)C(=O)N[C@H](C(=O)N[C@H](C=O)CC(=O)O)C(C)C`, the cell death at 20 µM in assay [1] was 23.1%.
Regarding `C=C1CC[C@H]2[C@@](C)(CO)CCC[C@]2(C)[C@H]1CCC1CCOC1=O` (some centres not stated), the cell death at 20 µM in assay [1] was 30.8%.
Turning to `C=C1CC[C@H]2[C@@](C)(CO)CCC[C@]2(C)[C@H]1CCC1=CCOC1=O`, the cell death at 20 µM in assay [1] was 32.6%.
With `C=C1CC[C@@H]2[C@](C)(CC[C@H](O)[C@]2(C)CO)[C@H]1/C=C/C1CCOC1=O` (stereo in doubt; 2), the figures for the cell death in assay [2] and in assay [1] were 29.5% and 26.3%, respectively.
Turning to `C=C1CC[C@@H]2[C@](C)(CC[C@H](O)[C@]2(C)CO)[C@H]1/C=C/C1CCOC1=O` (stereo in doubt; 3), the cell death at 20 µM in assay [1] is 29.3%.
